Results taken from ChEMBL document CHEMBL3885881, “DrugMatrix”.

Species on record: Rattus norvegicus
Assay: DrugMatrix - Regimen: Daily Repeat
Assay type: toxicity, organism-based, Sprague-Dawley
Design: regimen Daily Repeat, gender Male, age 6-8 weeks
Conditions: in vivo, sc, route subcutaneous, […]; for ABSOLUTE BASOPHIL / ABSOLUTE EOSINOPHIL / ABSOLUTE LYMPHOCYTE / ABSOLUTE MONOCYTE / ABSOLUTE SEGMENTED NEUTROPHIL / BASOPHIL / EOSINOPHIL / ERYTHROCYTE COUNT / HEMATOCRIT / HEMOGLOBIN / LEUKOCYTE COUNT / LYMPHOCYTE / MEAN CORPUSCULAR HEMOGLOBIN / MEAN CORPUSCULAR HEMOGLOBIN CONCENTRATION / MEAN CORPUSCULAR VOLUME / MONOCYTE / NEUTROPHIL / NUCLEATED RED BLOOD CELLS / PLATELET COUNT: tissue Blood; for ALANINE AMINOTRANSFERASE / ALBUMIN / ALKALINE PHOSPHATASE / ASPARTATE AMINOTRANSFERASE / BLOOD UREA NITROGEN / CARBON DIOXIDE / CHLORIDE / CHOLESTEROL / CREATINE PHOSPHOKINASE / CREATININE / GLUCOSE / LACTATE DEHYDROGENASE / LIPASE / PHOSPHORUS / POTASSIUM / SODIUM / TOTAL BILIRUBIN / TOTAL PROTEIN / URIC ACID: tissue Plasma
[1] = 0 mg/kg, 72 h, dose level Control, time 3 day
[2] = 0 mg/kg, 120 h, dose level Control, time 5 day
[3] = 29 mg/kg, 72 h, dose level Low, time 3 day

## Nc1nc2c(ncn2CCC(CO)CO)c(=O)[nH]1 [PENCICLOVIR]
[1]
  ABSOLUTE BASOPHIL: 0 CELLS/uL
  ABSOLUTE EOSINOPHIL: 42.67 CELLS/uL
  ABSOLUTE LYMPHOCYTE: 10202 CELLS/uL
  ABSOLUTE MONOCYTE: 261.5 CELLS/uL
  ABSOLUTE SEGMENTED NEUTROPHIL: 2193.83 CELLS/uL
  BASOPHIL: 0%
  EOSINOPHIL: 0.33%
  ERYTHROCYTE COUNT: 5.63 x10E6/uL
  HEMATOCRIT: 35.35%
  HEMOGLOBIN: 13.07 G/DL
  LEUKOCYTE COUNT: 12.7 x10E3/uL
  LYMPHOCYTE: 81.17%
  MEAN CORPUSCULAR HEMOGLOBIN: 23.23 pg
  MEAN CORPUSCULAR HEMOGLOBIN CONCENTRATION: 36.97 G/DL
  MEAN CORPUSCULAR VOLUME: 62.82 fL
  MONOCYTE: 2%
  NEUTROPHIL: 16.5%
  NUCLEATED RED BLOOD CELLS: 0 /100WBC
  PLATELET COUNT: 1180.33 x10E3/uL
  ALANINE AMINOTRANSFERASE: 48.67 u/L
  ALBUMIN: 4.08 G/DL
  ALKALINE PHOSPHATASE: 360.67 u/L
  ASPARTATE AMINOTRANSFERASE: 85.5 u/L
  BLOOD UREA NITROGEN: 17.83 mg/dL
  CARBON DIOXIDE: 26.17 mmol/L
  CHLORIDE: 101.83 MEQ/L
  CHOLESTEROL: 71 mg/dL
  CREATINE PHOSPHOKINASE: 515.17 u/L
  CREATININE: 0.22 mg/dL
  GLUCOSE: 192.5 mg/dL
  LACTATE DEHYDROGENASE: 214.67 u/L
  LIPASE: 8.5 u/L
  PHOSPHORUS: 12.95 mg/dL
  POTASSIUM: 6.39 MEQ/L
  SODIUM: 142.38 MEQ/L
  TOTAL BILIRUBIN: 0.18 mg/dL
  TOTAL PROTEIN: 5.95 G/DL
  URIC ACID: 1.83 mg/dL
[2]
  ABSOLUTE BASOPHIL: 0 CELLS/uL
  ABSOLUTE EOSINOPHIL: 188.5 CELLS/uL
  ABSOLUTE LYMPHOCYTE: 12360.83 CELLS/uL
  ABSOLUTE MONOCYTE: 64.33 CELLS/uL
  ABSOLUTE SEGMENTED NEUTROPHIL: 1986.33 CELLS/uL
  BASOPHIL: 0%
  EOSINOPHIL: 1.33%
  ERYTHROCYTE COUNT: 5.52 x10E6/uL
  HEMATOCRIT: 35.82%
  HEMOGLOBIN: 13.25 G/DL
  LEUKOCYTE COUNT: 14.6 x10E3/uL
  LYMPHOCYTE: 84.5%
  MEAN CORPUSCULAR HEMOGLOBIN: 24.05 pg
  MEAN CORPUSCULAR HEMOGLOBIN CONCENTRATION: 36.98 G/DL
  MEAN CORPUSCULAR VOLUME: 64.97 fL
  MONOCYTE: 0.5%
  NEUTROPHIL: 13.67%
  NUCLEATED RED BLOOD CELLS: 0 /100WBC
  PLATELET COUNT: 1297.83 x10E3/uL
  ALANINE AMINOTRANSFERASE: 51.17 u/L
  ALBUMIN: 4.08 G/DL
  ALKALINE PHOSPHATASE: 393.17 u/L
  ASPARTATE AMINOTRANSFERASE: 111 u/L
  BLOOD UREA NITROGEN: 18.17 mg/dL
  CARBON DIOXIDE: 25 mmol/L
  CHLORIDE: 105.17 MEQ/L
  CHOLESTEROL: 65.5 mg/dL
  CREATINE PHOSPHOKINASE: 911.5 u/L
  CREATININE: 0.21 mg/dL
  GLUCOSE: 183 mg/dL
  LACTATE DEHYDROGENASE: 189 u/L
  LIPASE: 8.33 u/L
  PHOSPHORUS: 12.78 mg/dL
  POTASSIUM: 6.05 MEQ/L
  SODIUM: 144.57 MEQ/L
  TOTAL BILIRUBIN: 0.25 mg/dL
  TOTAL PROTEIN: 5.83 G/DL
  URIC ACID: 1.58 mg/dL
[3]
  ABSOLUTE BASOPHIL: 0 CELLS/uL
  ABSOLUTE EOSINOPHIL: 232.67 CELLS/uL
  ABSOLUTE LYMPHOCYTE: 11739.33 CELLS/uL
  ABSOLUTE MONOCYTE: 92.67 CELLS/uL
  ABSOLUTE SEGMENTED NEUTROPHIL: 1668.67 CELLS/uL
  BASOPHIL: 0%
  EOSINOPHIL: 1.67%
  ERYTHROCYTE COUNT: 5.23 x10E6/uL
  HEMATOCRIT: 33.7%
  HEMOGLOBIN: 12.47 G/DL
  LEUKOCYTE COUNT: 13.73 x10E3/uL
  LYMPHOCYTE: 85.67%
  MEAN CORPUSCULAR HEMOGLOBIN: 23.87 pg
  MEAN CORPUSCULAR HEMOGLOBIN CONCENTRATION: 36.97 G/DL
  MEAN CORPUSCULAR VOLUME: 64.5 fL
  MONOCYTE: 0.67%
  NEUTROPHIL: 12%
  NUCLEATED RED BLOOD CELLS: 0 /100WBC
  PLATELET COUNT: 1318 x10E3/uL
  ALANINE AMINOTRANSFERASE: 47 u/L
  ALBUMIN: 4.03 G/DL
  ALKALINE PHOSPHATASE: 451.67 u/L
  ASPARTATE AMINOTRANSFERASE: 88.67 u/L
  BLOOD UREA NITROGEN: 15 mg/dL
  CARBON DIOXIDE: 28 mmol/L
  CHLORIDE: 104.67 MEQ/L
  CHOLESTEROL: 64 mg/dL
  CREATINE PHOSPHOKINASE: 727.67 u/L
  CREATININE: 0.21 mg/dL
  GLUCOSE: 162.33 mg/dL
  LACTATE DEHYDROGENASE: 101 u/L
  LIPASE: 8.33 u/L
  PHOSPHORUS: 13 mg/dL
  POTASSIUM: 6.56 MEQ/L
  SODIUM: 146.33 MEQ/L
  TOTAL BILIRUBIN: 0.2 mg/dL
  TOTAL PROTEIN: 5.9 G/DL
  URIC ACID: 1.7 mg/dL
